Assay results: US20240066003A1, “NEURODEVELOPMENTAL DISORDER THERAPY” (Anavex Life Sciences Corp., priority 2016, published 2024)

Columns and labels:
[1] = tested on: heterozygous MECP2knockout mice (HET); test: Clasping of hind legs; format: in vivo; conditions: 8 weeks of age; 30 mg/kg p.o. daily
Protocol: Studies employed wild type (WT) mice and heterozygous MECP2knockout mice (HET) All mice were provided by Jackson Laboratory, Bar Harbor, Maine. HET mice were Bird mice (Jackson Laboratories, Bar Harbor, ME, B6.129P2(C)-Mecp2^tm1.1Bird/Stock Number: 003890) were obtained by crossing het females with wild type (WT) males (C57B/6J). […] Mecp2 females testing at ˜8 and ˜12 weeks of age WT—vehicle (0.25% MC/dH2O) HET—vehicle (0.25% MC/dH2O) HET—A2-733 (10 mg/kg) HET—A2-733 (30 mg/kg) Chronic dosing (p.o.) daily, starting at ˜5.5 weeks of age and continuing through the 12-week behavioral testing time point 60 min pre-treatment during behavioral testing. Mice are lifted gently by the tail with front limbs remaining on surface. Clasping of hind legs is noted (normal is a spread in the hind legs).

[2] = tested on: heterozygous MECP2knockout mice (HET); test: Startle/PPI; format: in vivo
Protocol: Studies employed wild type (WT) mice and heterozygous MECP2knockout mice (HET) All mice were provided by Jackson Laboratory, Bar Harbor, Maine. HET mice were Bird mice (Jackson Laboratories, Bar Harbor, ME, B6.129P2(C)-Mecp2^tm1.1Bird/Stock Number: 003890) were obtained by crossing het females with wild type (WT) males (C57B/6J). […] Mecp2 females testing at ˜8 and ˜12 weeks of age WT—vehicle (0.25% MC/dH2O) HET—vehicle (0.25% MC/dH2O) HET—A2-733 (10 mg/kg) HET—A2-733 (30 mg/kg) Chronic dosing (p.o.) daily, starting at ˜5.5 weeks of age and continuing through the 12-week behavioral testing time point 60 min pre-treatment during behavioral testing. The acoustic startle measures an unconditioned reflex response to external auditory stimulation. Mice are placed in the prepulse inhibition (PPI) chambers for a 5 min session of white noise (70 dB) habituation. Then the session starts with a habituation block of 6 presentations of the startle stimulus alone, followed by 10 PPI blocks of 6 different types of trials [null (no stimuli), startle (120 dB), startle plus prepulse (4, 8 and 12 dB over background noise i.e. 74, 78 or 82 dB) and prepulse alone (82 dB)] presented at random within each block. The amount of inhibition of the normal startle is determined and expressed as a percentage of the basic startle response (from startle alone trials), excluding the startle response of the first habituation block.

[3] = tested on: heterozygous MECP2knockout mice (HET); test: NeuroCube gait analysis; format: in vivo
Protocol: Studies employed wild type (WT) mice and heterozygous MECP2knockout mice (HET) All mice were provided by Jackson Laboratory, Bar Harbor, Maine. HET mice were Bird mice (Jackson Laboratories, Bar Harbor, ME, B6.129P2(C)-Mecp2^tm1.1Bird/Stock Number: 003890) were obtained by crossing het females with wild type (WT) males (C57B/6J). […] Mecp2 females testing at ˜8 and ˜12 weeks of age WT—vehicle (0.25% MC/dH2O) HET—vehicle (0.25% MC/dH2O) HET—A2-733 (10 mg/kg) HET—A2-733 (30 mg/kg) Chronic dosing (p.o.) daily, starting at ˜5.5 weeks of age and continuing through the 12-week behavioral testing time point 60 min pre-treatment during behavioral testing. Neurological testing via a platform that employs computer vision to detect changes in gait geometry and gait dynamics in rodent models of neurological disorders, pain, and neuropathies. Complex bio-informatics algorithms similar to those used in SmartCube® are employed to detect a disease phenotype and screen compounds. (NeuroCube, PsychoGenics, Tarrytown NY) A platform that employs computer vision to detect changes in gait geometry and gait dynamics in rodent models of neurological disorders, pain, and neuropathies. Mice are allowed to walk in the chamber for 5 min. When the paw touches the screen, LED light reflects creating bright spots. Images are captured and processed using proprietary computer vision and bio-informatics data mining algorithms.

Rett syndrome [4] = test: Example 2 cardiac pulse rate in Rett syndrome patient; format: in vivo, human; conditions: person, oral 20 mg daily for 5 days
Description: A person presents with Rett syndrome. Their real time cardiac pulse rate is monitored. Prior to commencing therapy, their heart rate is 49 beats per minute with substantial variability.

Rett syndrome [5] = test: Example 4 eating and choking in Rett syndrome patient; format: in vivo, human; conditions: person, oral 40 mg every other day, after 60 days
Protocol: A person presents with Rett syndrome. […] They begin treatment with oral doses of A2-73 at 40 mg every other day.

Angelman syndrome = test: Example 5 sleep and seizures in Angelman syndrome patient; format: in vivo, human; conditions: person, oral 30 mg/day, after 15 days
Protocol: A person presents with Angelman syndrome. They experience disturbed sleep and frequent seizures prior to commencing therapy. They begin treatment with oral doses of A2-73 at 30 mg/day.

Smith—Magenis syndrome = test: Example 7 sleep in Smith-Magenis syndrome patient; format: in vivo, human; conditions: person, oral 10 mg/day, after 15 days
Protocol: A person presents with Smith—Magenis syndrome. They experience disturbed sleep. They begin treatment with oral doses of A2-73 at 10 mg/day.

multiple sclerosis = test: Example 8 gadolinium-enhanced MRI lesions in multiple sclerosis patient; format: in vivo, human; conditions: person, oral 40 mg every fifth day, weeks 12, 16, 20 and 24 vs 12 week pretreatment MRI
Protocol: A person presents with multiple sclerosis. They begin treatment with oral doses of A2-73 at 40 mg every fifth day.

[6] = tested on: muscarinic acetylcholine receptors; conditions: believed to bind; cited from earlier work

For `CN(C)CC1CCOC1(c1ccccc1)c1ccccc1.Cl` (centres unmarked) [A2-73, tetrahydro-N,N-dimethyl-2,2-diphenyl-3-furanmethanamine hydrochloride], the “clasping vs vehicle-treated mutant mice” value [1] was “clasped less”, the “PPI, treatment differences” value ([2]; 8 weeks of age) was “No treatment differences” and the “startle response vs vehicle-treated mutant mice” value ([2]; 8 weeks of age, 30 mg/kg p.o. daily) was “increased startle response”. For the same molecule, the “startle response vs vehicle-treated mutant mice, outliers removed” value ([2]; 12 weeks of age, 30 mg/kg, outliers removed, p<0.01) was “increased startle”, the “startle response, treatment effect” value ([2]; 12 weeks of age, all data, p<0.08) was “trend of a treatment effect” and the “PPI treatment interaction, post hoc” value ([2]; 12 weeks of age, interaction p<0.05) was “did not reveal any significant post hoc differences”. The “NeuroCube GAIT, Het vehicle v. Het AV2-73” value (“NeuroCube GAIT” below) ([3]; 8 week, 10 mg/kg, p > 0.09) was 63, p > 0.09, the “NeuroCube Body Motion, Het vehicle v. Het AV2-73” value (“NeuroCube Body Motion” below) ([3]; 8 week, 10 mg/kg, p > 0.20) was 60, p > 0.20 and the “NeuroCube Correlation, Het vehicle v. Het AV2-73” value (shortened to “NeuroCube Correlation”) ([3]; 8 week, 10 mg/kg, p > 0.40) was 56, p > 0.40. The “NeuroCube Paw Positioning, Het vehicle v. Het AV2-73” value (“NeuroCube Paw Positioning” for short) ([3]; 8 week, 10 mg/kg, p > 0.57) was 53, p > 0.57, the “NeuroCube Overall, Het vehicle v. Het AV2-73” value (“NeuroCube Overall” below) ([3]; 8 week, 10 mg/kg, p > 0.69) was 53, p > 0.69 and the “NeuroCube Paw Features, Het vehicle v. Het AV2-73” value (shortened to “NeuroCube Paw Features”) ([3]; 8 week, 10 mg/kg, p > 0.78) was 52, p > 0.78. For the same molecule, the “NeuroCube Body Motion” value ([3]; 8 week, 30 mg/kg, p < 0.003) was 81, p < 0.003, the “NeuroCube Correlation” value ([3]; 8 week, 30 mg/kg, p < 0.005) was 76, p < 0.005 and the “NeuroCube GAIT” value ([3]; 8 week, 30 mg/kg, p < 0.05) was 69, p < 0.05. The “NeuroCube Overall” value ([3]; 8 week, 30 mg/kg, p > 0.24) was 62, p > 0.24, the “NeuroCube Paw Positioning” value ([3]; 8 week, 30 mg/kg, p > 0.36) was 57, p > 0.36 and the “NeuroCube Paw Features” value ([3]; 8 week, 30 mg/kg, p > 0.56) was 55, p > 0.56. The “NeuroCube separation versus Het vehicle” value ([3]; 8 weeks of age) was “no separation”, the “recovery of the overall signature” value ([3]; 8 weeks of age, NeuroCube) was 9-17% and the “NeuroCube GAIT” value ([3]; 12 week, 10 mg/kg, p > 0.29) was 57, p > 0.29. For the same molecule, the “NeuroCube Paw Features” value ([3]; 12 week, 10 mg/kg, p > 0.35) was 56, p > 0.35, the “NeuroCube Paw Positioning” value ([3]; 12 week, 10 mg/kg, p > 0.57) was 53, p > 0.57 and the “NeuroCube Correlation” value ([3]; 12 week, 10 mg/kg, p > 0.70) was 53, p > 0.70. The “NeuroCube Overall” value ([3]; 12 week, 10 mg/kg, p > 0.70) was 53, p > 0.70, the “NeuroCube Body Motion” value ([3]; 12 week, 10 mg/kg, p > 0.71) was 52, p > 0.71 and the “NeuroCube Correlation” value ([3]; 12 week, 30 mg/kg, p < 0.03) was 69, p < 0.03. The “NeuroCube Body Motion” value ([3]; 12 week, 30 mg/kg, p < 0.04) was 68, p < 0.04, the “NeuroCube Overall” value ([3]; 12 week, 30 mg/kg, p > 0.21) was 61, p > 0.21 and the “NeuroCube GAIT” value ([3]; 12 week, 30 mg/kg, p > 0.37) was 57, p > 0.37. For the same molecule, the “NeuroCube Paw Positioning” value ([3]; 12 week, 30 mg/kg, p > 0.62) was 53, p > 0.62, the “NeuroCube Paw Features” value ([3]; 12 week, 30 mg/kg, p > 0.65) was 53, p > 0.65 and the heart rate variability (Rett syndrome [4]) was “variability is reduced”. The average heart rate (Rett syndrome [4]; 49 beats per minute before therapy) was 75 beats per minutes, the instances of choking (Rett syndrome [5]) was “reduced” and the weight gain (Rett syndrome [5]) was 10%. For the same molecule, the “reduction of instances of seizure” value (Angelman syndrome) was 50%, the sleep (Angelman syndrome) was “markedly less disturbed” and the sleep (Smith—Magenis syndrome) was “markedly less disturbed”. The “total number of gadolinium-enhanced lesions on MRI” value (multiple sclerosis) was “substantially reduced” and the “affinity for muscarinic acetylcholine receptors” value [6] was “low micromolar range”.
